Results from patent US20230373934A1, “ANDROGEN RECEPTOR MODULATORS AND METHODS FOR THEIR USE” (ESSA Pharma, Inc., priority 2022, published 2023).

These compounds were tested against T1, androgen receptor (AR) (Homo sapiens, UniProt P10275, T878A) (assay: Androgen-induced PSA-luciferase assay, Luciferase Assay A (LNCaP transiently transfected with PSA (6.1 kb)-luciferase reporter)). Conditions: LNCaP cells, 1 h pretreatment, R1881 (1 nM) 24 h, read-out: PSA-Luc IC50 Range.
T1 construct: endogenous in cells; host or cells: LNCaP
T1 sequence (P10275 1-920 T878A): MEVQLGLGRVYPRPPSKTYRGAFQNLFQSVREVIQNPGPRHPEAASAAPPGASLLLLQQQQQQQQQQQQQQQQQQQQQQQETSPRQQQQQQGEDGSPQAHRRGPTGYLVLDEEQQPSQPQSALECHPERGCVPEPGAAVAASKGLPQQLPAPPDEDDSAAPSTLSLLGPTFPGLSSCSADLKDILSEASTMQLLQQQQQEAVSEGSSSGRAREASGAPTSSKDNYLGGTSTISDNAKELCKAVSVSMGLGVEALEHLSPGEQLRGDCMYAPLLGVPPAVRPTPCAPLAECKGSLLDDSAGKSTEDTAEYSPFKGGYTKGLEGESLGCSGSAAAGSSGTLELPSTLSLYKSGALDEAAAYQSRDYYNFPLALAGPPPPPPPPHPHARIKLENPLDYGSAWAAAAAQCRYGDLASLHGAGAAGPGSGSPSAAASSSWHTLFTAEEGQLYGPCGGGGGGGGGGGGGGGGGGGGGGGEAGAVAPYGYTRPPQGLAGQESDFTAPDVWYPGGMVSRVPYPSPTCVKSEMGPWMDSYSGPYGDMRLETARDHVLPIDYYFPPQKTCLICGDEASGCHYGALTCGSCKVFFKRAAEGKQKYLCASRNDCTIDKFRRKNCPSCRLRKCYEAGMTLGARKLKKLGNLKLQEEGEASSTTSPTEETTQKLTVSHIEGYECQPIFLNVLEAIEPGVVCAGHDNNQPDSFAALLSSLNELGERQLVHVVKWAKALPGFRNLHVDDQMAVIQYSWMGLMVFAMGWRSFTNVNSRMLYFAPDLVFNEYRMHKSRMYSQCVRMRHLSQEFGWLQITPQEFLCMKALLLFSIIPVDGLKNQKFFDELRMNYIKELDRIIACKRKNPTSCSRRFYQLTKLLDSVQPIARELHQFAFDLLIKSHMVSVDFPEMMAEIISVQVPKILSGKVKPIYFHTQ
Format: cell-based
Procedure: The PSA (6.1 kb)-luciferase reporter contains functional AREs (androgen response elements) to which AR binds in response to androgen to induce luciferase activity. LNCaP cells were transiently transfected with the PSA (6.1 kb)-luciferase reporter for 24 h, and then pretreated with vehicle (DMSO) or indicated concentration of representative compounds for one hour prior to the addition of synthetic androgen, R1881 (1 nM). After 24 h of incubation with R1881, the cells were harvested, and relative luciferase activities were determined (FIG. 1). To determine the IC50, treatments were normalized to vehicle control activity induced by R1881 (Table 2).
Luciferase Assay A: Cells were lysed using Passive Lysis Buffer (Promega) and then collected into V-bottom 96-well tissue culture plates. Lysates were centrifuged at 4° C. for 5 minutes at 3000 rpm. To measure luminescence of LNCaP cell lysates the Firefly Luciferase Assay System (Promega) was employed, according to manufacturer's protocol. Relative luminescence units (RLU) in cell lysates were detected for 10 seconds using Promega GloMax-Multi Detection Luminometer (Promega). Values were normalized to protein content. GraphPad Prism graphing software was used to calculate IC50 values. Luciferase Assay A was run for all compounds in Table 2 unless otherwise noted below.
Statistical analyses were performed using GraphPad Prism (Version 6.01 for Windows; La Jolla, CA, USA). Comparisons between treatment and control groups were compared using Two-Way ANOVA with post-hoc Dunnett's and Tukey's tests. Differences were considered statistically significant at P values less than 0.05.

Structure (SMILES)	IC50
CC(C)(c1ccc(-c2ccc(NC3CN(S(C)(=O)=O)C3)nc2)cc1)c1cc(Cl)c(OCCCl)c(C#N)c1 [Compound A53]	< 500 nM
CC(C)(c1ccc(OC[C@]2(C)C[C@@H](NS(C)(=O)=O)C2)cc1)c1cc(Cl)c(OCCCl)c(C#N)c1 [Compound A25]	> 2000 nM
CC(C)(c1ccc(OCc2ccnc(NS(C)(=O)=O)n2)cc1)c1cc(Cl)c(CCCl)c(C#N)c1 [Compound A136]	500 to 2000 nM
CC(C)(c1ccc(OCc2ccnc(NS(C)(=O)=O)n2)cc1)c1cc(Cl)c(OCC2CCC2)c(C#N)c1 [Compound A146]	500 to 2000 nM
CC(C)(c1ccc(-c2ccc(CNS(C)(=O)=O)cn2)cc1)c1cc(Cl)c(OCCCl)c(C#N)c1 [Compound A3]	500 to 2000 nM
CC(C)(c1ccc(-c2cncc(N3CC(NS(C)(=O)=O)C3)n2)cc1)c1cc(Cl)c(OCCCl)c(C#N)c1 [Compound A41]	> 2000 nM
CC(C)(c1ccc(OC[C@]2(F)C[C@H](NS(C)(=O)=O)C2)cc1)c1cc(Cl)c(OCCCl)c(C#N)c1 [Compound A26]	> 2000 nM
CC(C)(c1ccc(N2CCOC(CCNS(C)(=O)=O)C2)cc1)c1cc(Cl)c(OCCCl)c(C#N)c1 (stereo not drawn) [Compound A31]	> 2000 nM
CC(C)(c1ccc(O[C@H]2CC[C@H](NS(C)(=O)=O)CC2)cc1)c1cc(Cl)c(OCCCl)c(C#N)c1 [Compound A33]	> 2000 nM
CC(C)(c1ccc(N2CCC(N3CC(NS(C)(=O)=O)C3)CC2)cc1)c1cc(Cl)c(OCCCl)c(C#N)c1 [Compound A47]	> 2000 nM
CC(C)(c1ccc(OCc2ccnc(NS(C)(=O)=O)n2)cc1)c1cc(Cl)c(OCc2ccccc2)c(C#N)c1 [Compound A182]	500 to 2000 nM
CS(=O)(=O)Nc1nccc2cc(-c3ccc(Oc4cc(Cl)c(OCCCl)c(C#N)c4)cc3)ccc12 [Compound A65]	> 2000 nM
CS(=O)(=O)NC1CN(c2ncc(-c3ccc(N(CC(F)(F)F)c4cc(Cl)c(OCCCl)c(C#N)c4)cc3)cn2)C1 [Compound A68]	< 500 nM
Cn1ccc(S(=O)(=O)Nc2nccc(COc3ccc(C(C)(C)c4cc(Cl)c(OCCCl)c(C#N)c4)cc3)n2)n1 [Compound A105]	500 to 2000 nM
CC(C)(c1ccc(OCc2ccnc(NS(C)(=O)=O)n2)cc1)c1cc(Cl)c(N2CCOC3(CC3)C2)c(C#N)c1 [Compound A148]	500 to 2000 nM
CS(=O)(=O)NCc1ccc(-c2ccc(Oc3cc(Cl)c(OCCCl)c(C#N)c3)cc2)cn1 [Compound A21]	500 to 2000 nM
CC(C)(c1ccc(-c2ccc3c(c2)COC32CN(S(C)(=O)=O)C2)cc1)c1cc(Cl)c(OCCCl)c(C#N)c1 [Compound A10]	500 to 2000 nM
CC(C)(c1ccc(N2CCN(CCNS(C)(=O)=O)CC2)cc1)c1cc(Cl)c(OCCCl)c(C#N)c1 [Compound A13]	> 2000 nM
CN(c1ccc(OCc2ccnc(NS(C)(=O)=O)n2)cc1)c1cc(Cl)c(OCCCl)c(C#N)c1 [Compound A162]	500 to 2000 nM
CC(C)(c1cc(Cl)c(OCCCl)c(C#N)c1)c1ccc(OCc2ccnc(NS(C)(=O)=O)n2)c(CO)c1 [Compound A119]	> 2000 nM
CC(C)(c1ccc(OCc2ccnc(NS(C)(=O)=O)n2)cc1)c1cc(Cl)c(CN2CCCC(F)(F)C2)c(Cl)c1 [Compound A160]	> 2000 nM
CC(C)(c1ccc(OCc2ccnc(NS(C)(=O)=O)n2)cc1)c1cc(Cl)c(OC(F)F)c(C#N)c1 [Compound A42]	500 to 2000 nM
CC(C)(c1ccc(-c2cn([C@H]3C[C@H](NS(C)(=O)=O)C3)nn2)cc1)c1cc(Cl)c(OCCCl)c(C#N)c1 [Compound A77]	> 2000 nM
CC(C)(c1ccc(-c2ccc(N3CCC(NS(C)(=O)=O)CC3)nc2)cc1)c1cc(Cl)c(OCCCl)c(C#N)c1 [Compound A58]	> 2000 nM
CC(C)(c1ccc(OCc2ccnc(NS(C)(=O)=O)n2)cc1)c1cc(Cl)c(N2CCN(CC(F)(F)F)CC2)c(C#N)c1 [Compound A134]	500 to 2000 nM
C=Cc1c(Cl)cc(C(C)(C)c2ccc(OCc3ccnc(NS(C)(=O)=O)n3)cc2)cc1C#N [Compound A179]	500 to 2000 nM

Structure (SMILES)	IC50
CC(C)(c1ccc(OCc2ccnc(NS(C)(=O)=O)n2)cc1)c1cc(Cl)c(OC2CN(CC(F)(F)F)C2)c(C#N)c1 [Compound A165]	> 2000 nM
CC(C)(c1ccc(OCc2ccnc(NS(C)(=O)=O)n2)cc1)c1cc(Cl)c(CN2CCOCC2)c(Cl)c1 [Compound A159]	> 2000 nM
CS(=O)(=O)NC1CCN(Cc2ccc(Oc3cc(Cl)c(OCCCl)c(C#N)c3)cc2)CC1 [Compound A9]	> 2000 nM
CC(C)(C)OC(=O)N1CCC(c2cc(COc3ccc(C(C)(C)c4cc(Cl)c(OCCCl)c(C#N)c4)cc3)nc(NS(C)(=O)=O)n2)CC1 [Compound A115]	500 to 2000 nM
CC(C)(c1ccc(CN2CCC(NS(C)(=O)=O)C(F)(F)C2)cc1)c1cc(Cl)c(OCCCl)c(C#N)c1 (stereo not drawn) [Compound A34]	> 2000 nM
CS(=O)(=O)N1CC2(CC(Oc3ccc(Oc4cc(Cl)c(OCCCl)c(C#N)c4)cc3)C2)C1 [Compound A137]	500 to 2000 nM
CS(=O)(=O)NC1CN(CCc2ccc(Oc3cc(Cl)c(OCCCl)c(C#N)c3)cc2)C1 [Compound A7]	> 2000 nM
CC(C)(c1ccc(OCc2ccnc(NS(C)(=O)=O)n2)cc1)c1cc(Cl)c(CCN2CC(O)C2)c(C#N)c1 [Compound A169]	> 2000 nM
CCCOc1c(Cl)cc(C(C)(C)c2ccc(OCc3ccnc(NS(C)(=O)=O)n3)cc2)cc1C#N [Compound A178]	< 500 nM
CC(C)(c1cc(Cl)c(OCCCl)c(C#N)c1)c1ccc(OCc2ccnc(NS(C)(=O)=O)n2)c(CN2CCNCC2)c1 [Compound A113]	> 2000 nM
CS(=O)(=O)Nc1cnc2cc(N3CCC(Oc4cc(Cl)c(OCCCl)c(C#N)c4)CC3)ccc2n1 [Compound A88]	> 2000 nM
CC(C)(c1ccc(-c2ccc(N3CCN(S(C)(=O)=O)CC3)nc2)cc1)c1cc(Cl)c(OCCCl)c(C#N)c1 [Compound A60]	500 to 2000 nM
CC(C)(c1ccc(Oc2ccnc(N3CC(NS(C)(=O)=O)C3)n2)cc1)c1cc(Cl)c(OCCCl)c(C#N)c1 [Compound A87]	500 to 2000 nM
CC(C)(c1ccc(-c2cnc3cc(NS(C)(=O)=O)ccc3n2)cc1)c1cc(Cl)c(OCCCl)c(C#N)c1 [Compound A124]	500 to 2000 nM
CS(=O)(=O)Nc1cnc2cc(-c3ncc(Oc4cc(Cl)c(OCCCl)c(C#N)c4)cn3)ccc2n1 [Compound A123]	> 2000 nM
CC(C)(c1ccc(OCc2ccnc(NS(C)(=O)=O)n2)cc1)c1cc(Cl)c(OC2COC2)c(C#N)c1 [Compound A56]	> 2000 nM
CC(C)(c1ccc(-n2cc(N3CC(NS(C)(=O)=O)C3)cn2)cc1)c1cc(Cl)c(OCCCl)c(C#N)c1 [Compound A45]	500 to 2000 nM
CC(C)(c1ccc(OCc2ccnc(NS(C)(=O)=O)n2)cc1)c1cc(Cl)c(N2CCC(F)CC2)c(C#N)c1 [Compound A153]	> 2000 nM
CS(=O)(=O)NC1CCN(CCc2ccc(Oc3cc(Cl)c(OCCCl)c(C#N)c3)cc2)CC1 [Compound A30]	> 2000 nM
CC(C)(c1ccc(-c2ccc(N3CCC(NS(C)(=O)=O)C3)nc2)cc1)c1cc(Cl)c(OCCCl)c(C#N)c1 (stereo not drawn) [Compound A54]	< 500 nM
CC(C)(c1ccc(OCc2cccc(NS(C)(=O)=O)c2F)cc1)c1cc(Cl)c(OCCCl)c(C#N)c1 [Compound A130]	500 to 2000 nM
CC(C)(c1ccc(CCN2CCC(NS(C)(=O)=O)CC2)cc1)c1cc(Cl)c(OCCCl)c(C#N)c1 [Compound A29]	> 2000 nM
Cn1cnc(S(=O)(=O)Nc2nccc(COc3ccc(C(C)(C)c4cc(Cl)c(OCCCl)c(C#N)c4)cc3)n2)c1 [Compound A107]	> 2000 nM
CC(C)(c1ccc(OCc2ccnc(NS(C)(=O)=O)n2)cc1)c1cc(Cl)c(N2CCC3(CC2)CC3)c(C#N)c1 [Compound A133]	> 2000 nM
CS(=O)(=O)Nc1cnc2cc(-c3ccc(Oc4cc(F)c(OCCCl)c(C#N)c4)cc3)ccc2n1 [Compound A155]	500 to 2000 nM
